# Laboratory results as given in publication PMC6891325, “The Synthesis, Characterization, Cytotoxic Activity Assessment and Structure-Activity Relationship of 4-Aryl-6-(2,5-dichlorothiophen-3-yl)-2-methoxypyridine-3-carbonitriles” (Molecules, 2019).
# Columns and labels:
# [1] = tested on: DU145; experiment: MTT cytotoxicity assay, DU145 prostate cancer cells; format: cell-based, human; settings: for IC50: Homo sapiens, DU-145, DU145 prostate cancer cells, MTT; for SI (DU145): selectivity index relative to normal human fibroblasts HSF1184
# Experimental: (§1) Three different cancer cell lines; namely, DU145 derived from prostate cancer cells (American Type Culture Collection No. HTB-81), HepG2 derived from human liver cancer cells (American Type Culture Collection No. HB-8065), MBA-MB-231 derived from breast cancer cells (American Type Culture Collection No. HTB-26) and normal human fibroblasts (HSF1184) were grown and cultivated according to our previously described method. Briefly, cells were seeded in Dulbecco′s modified Eagle’s media (DMEM) supplemented with 10% heat-inactivated fetal bovine serum (FBS), 100 IU/mL penicillin, […] and 2 mM glutamine. The cells were maintained in a humidified atmosphere with 5% CO2 at 37 °C for 8 days, with subsequent media renewal. Then, cells were plated in a 96-well flat bottom plate at a concentration of 10^4 cells/well in fresh complete growth medium for 24 h and maintained in 37 °C in a 5% CO2-humidified incubator.
# (§2) Cells in 96-well flat bottom plates were first serum-starved for 4 h by replacing cultured media with fresh medium (without serum). All synthesized compounds were properly dissolved in dimethyl sulfoxide (DMSO) to produce a stock concentration of 0.1 M. Cells were incubated with a range of different concentrations of the compounds we were testing (0–1000 μM) to give a final volume of 300 µL per well. In comparison, cells were incubated either alone with DMSO (negative control) or with 5-fluorouracil as a positive control. DMSO was used as a vehicle for the dissolution of the tested compounds and its final concentration in cultured media was less than 0.1%. Triplicate wells were designed for each individual dose. The compounds we synthesized were evaluated for in-vitro cytotoxicity properties via the standard 3-(4,5-dimethythiazol-2-yl)-2,5-diphenyl tetrazolium bromide (MTT) assay accordingly to our previously-reported work. The normal human fibroblast line (HSF1184) was used as a standard reference for the measurement of selectivity indexes (SIs) relative to cancer cell lines. The IC50 values and SIs were calculated accordingly.
# [2] = tested on: HepG2; experiment: MTT cytotoxicity assay, HepG2 liver cancer cells; format: cell-based, human; settings: for IC50: MTT; for SI (HepG2): selectivity index relative to normal human fibroblasts HSF1184
# Experimental: as §1, §2
# [3] = tested on: MDA-MB-231; experiment: MTT cytotoxicity assay, MDA-MB-231 breast cancer cells; format: cell-based, human; settings: for IC50: Homo sapiens, MDA-MB-231 breast cancer cells, MTT; for SI (MDA-MB-231): selectivity index relative to normal human fibroblasts HSF1184
# Experimental: as §1, §2
# [4] = tested on: HSF1184; experiment: MTT cytotoxicity assay, normal human fibroblasts HSF1184; format: cell-based; settings: for IC50: Fibroblast
# Experimental: as §1, §2
# [5] = tested on: HepG2, DU145 and MBA-MB-231 cancer cell lines; experiment: MTT cytotoxicity, stated jointly for the three cancer cell lines; format: cell-based; settings: Homo sapiens; summary statement for HepG2, DU145 and MBA-MB-231; read-out: IC50 against all three cancer cell lines
# Experimental: as §1, §2
# [6] = Homo sapiens, HepG2, HepG2 liver cancer cells
SMILES,IC50 [1],SI (DU145) [1],"IC50 [2, 6]",SI (HepG2) [2],IC50 [3],SI (MDA-MB-231) [3],IC50 [4],IC50 [5],melting point,IC50 ([2]; HepG2 liver cancer cells),IC50 Values HSF1184 [4]
"O=c1[nH]cc(F)c(=O)[nH]1 [5-fluorouracil, reference compound]",1.92 ± 0.24 µM,96.60,1.65 ± 0.09 µM,112.41,2.21 ± 0.28 µM,83.93,185.5 ± 0.48 µM,,,,
"COc1nc(-c2cc(Cl)sc2Cl)cc(-c2ccccc2)c1C#N [5a, 6-(2,5-dichlorothiophen-3-yl)-2-methoxy-4-phenylpyridine-3-carbonitrile]",> 100 µM,,49.6 ± 0.51 µM,,21.2 ± 0.37 µM,,82.39 ± 0.04 µM,> 100 µM,,,
"COc1nc(-c2cc(Cl)sc2Cl)cc(-c2ccc(C)cc2)c1C#N [5b, 6-(2,5-dichlorothiophen-3-yl)-2-methoxy-4-p-tolylpyridine-3-carbonitrile]",> 100 µM,,9.48 ± 0.63 µM,,> 100 µM,,114.5 ± 0.38 µM,> 100 µM,,,
"COc1nc(-c2cc(Cl)sc2Cl)cc(-c2ccc(Cl)cc2)c1C#N [5c, 4-(4-chlorophenyl)-6-(2,5-dichlorothiophen-3-yl)-2-methoxypyridine-3-carbonitrile]",42.36 ± 0.21 µM,2.18,> 100 µM,,28.3 ± 0.42 µM,3.26,92.38 ± 0.38 µM,> 100 µM,195 to 196 °C,,
"COc1nc(-c2cc(Cl)sc2Cl)cc(-c2ccc(Br)cc2)c1C#N [5d, 4-(4-bromophenyl)-6-(2,5-dichlorothiophen-3-yl)-2-methoxypyridine-3-carbonitrile]",3.63 ± 0.17 µM,116.65,1.53 µM,261.39,2.59 ± 0.04 µM,163.49,423.4 ± 0.49 µM,1 to 5 µM,214 to 215 °C,1.62 ± 0.15 µM,high
"COc1cccc(-c2cc(-c3cc(Cl)sc3Cl)nc(OC)c2C#N)c1 [5f, 6-(2,5-dichlorothiophen-3-yl)-2-methoxy-4-(3-methoxyphenyl)pyridine-3-carbonitrile]",27.4 ± 0.63 µM,3.48,18.3 ± 0.31 µM,5.21,43.49 ± 0.06 µM,2.20,95.49 ± 0.29 µM,,179 to 180 °C,,
"COc1nc(-c2cc(Cl)sc2Cl)cc(-c2cccc([N+](=O)[O-])c2)c1C#N [5g, 6-(2,5-dichlorothiophen-3-yl)-2-methoxy-4-(3-nitrophenyl)pyridine-3-carbonitrile]",4.97 ± 0.35 µM,,2.11 ± 0.26 µM,,1.93 ± 0.03 µM,,135.6 ± 0.55 µM,1 to 5 µM,,,high
"COc1nc(-c2cc(Cl)sc2Cl)cc(-c2ccc([N+](=O)[O-])cc2)c1C#N [5h, 6-(2,5-dichlorothiophen-3-yl)-2-methoxy-4-(4-nitrophenyl)pyridine-3-carbonitrile]",1.77 ± 0.38 µM,105.93,1.53 ± 0.38 µM,122.54,2.14 ± 0.06 µM,87.61,187.49 ± 0.14 µM,1 to 5 µM,204 to 205 °C,,high
"COc1ccc(-c2cc(-c3cc(Cl)sc3Cl)nc(OC)c2C#N)cc1Br [5i, 4-(3-bromo-4-methoxyphenyl)-6-(2,5-dichlorothiophen-3-yl)-2-methoxypyridine-3-carbonitrile]",1.82 ± 0.21 µM,,1.53 µM,,1.38 ± 0.03 µM,,234.5 ± 0.27 µM,1 to 5 µM,,1.72 ± 0.42 µM,high
"COc1cc(-c2ccccc2)cc(-c2cc(Cl)sc2Cl)n1 [6a, 2-(2,5-dichlorothiophen-3-yl)-6-methoxy-4-phenylpyridine]",53.49 ± 0.02 µM,1.67,32.31 ± 0.23 µM,2.77,15.3 ± 0.41 µM,5.82,89.34 ± 0.55 µM,,127 to 128 °C,,
"COc1cc(-c2ccc(C)cc2)cc(-c2cc(Cl)sc2Cl)n1 [6b, 2-(2,5-dichlorothiophen-3-yl)-6-methoxy-4-p-tolylpyridine]",64.59 ± 0.08 µM,1.59,39.5 ± 0.58 µM,2.59,52.39 ± 0.31 µM,1.95,102.4 ± 0.3 µM,,150 to 151 °C,,
"COc1cc(-c2ccc(Cl)cc2)cc(-c2cc(Cl)sc2Cl)n1 [6c, 4-(4-chlorophenyl)-2-(2,5-dichlorothiophen-3-yl)-6-methoxypyridine]",21.65 ± 0.12 µM,,11.3 ± 0.22 µM,,,,112.4 ± 0.47 µM,,,,
"COc1cc(-c2ccc(Br)cc2)cc(-c2cc(Cl)sc2Cl)n1 [6d, 4-(4-bromophenyl)-2-(2,5-dichlorothiophen-3-yl)-6-methoxypyridine]",29.4 ± 0.88 µM,3.14,64.59 ± 0.33 µM,1.43,15.4 ± 0.48 µM,6.00,92.55 ± 0.42 µM,,148 to 149 °C,,
"COc1cc(-c2ccccc2OC)cc(-c2cc(Cl)sc2Cl)n1 [6e, 2-(2,5-dichlorothiophen-3-yl)-6-methoxy-4-(2-methoxyphenyl)pyridine]",,,,,,,,,135 to 136 °C,,
"COc1cccc(-c2cc(OC)nc(-c3cc(Cl)sc3Cl)c2)c1 [6f, 2-(2,5-dichlorothiophen-3-yl)-6-methoxy-4-(3-methoxyphenyl)pyridine]",18.45 ± 0.02 µM,5.68,38.5 ± 0.62 µM,2.73,64.39 ± 0.28 µM,1.63,104.8 ± 0.71 µM,,156 to 157 °C,,
"COc1cc(-c2cccc([N+](=O)[O-])c2)cc(-c2cc(Cl)sc2Cl)n1 [6g, 2-(2,5-dichlorothiophen-3-yl)-6-methoxy-4-(3-nitrophenyl)pyridine]",25.4 ± 0.38 µM,3.33,39.43 ± 0.09 µM,2.14,18.3 ± 0.34 µM,4.61,84.56 ± 0.4 µM,,182 to 183 °C,,
